Reference: paper PMC9516332 (Frontiers in Oncology, 2022)
Like-named read-outs stand apart in the source and are kept apart here.

Key:
Experiment in all cases: Kinase panel profiling at 1 µmol/L (MSA or IMAP), percentage inhibition
Format in all cases: biochemical
[1] = target: T1, panel of 255 wild-type kinases (Homo sapiens, UniProt Q16566); conditions: read-out: %-inhibition CaMK4
T1 sequence (Q16566 1-473): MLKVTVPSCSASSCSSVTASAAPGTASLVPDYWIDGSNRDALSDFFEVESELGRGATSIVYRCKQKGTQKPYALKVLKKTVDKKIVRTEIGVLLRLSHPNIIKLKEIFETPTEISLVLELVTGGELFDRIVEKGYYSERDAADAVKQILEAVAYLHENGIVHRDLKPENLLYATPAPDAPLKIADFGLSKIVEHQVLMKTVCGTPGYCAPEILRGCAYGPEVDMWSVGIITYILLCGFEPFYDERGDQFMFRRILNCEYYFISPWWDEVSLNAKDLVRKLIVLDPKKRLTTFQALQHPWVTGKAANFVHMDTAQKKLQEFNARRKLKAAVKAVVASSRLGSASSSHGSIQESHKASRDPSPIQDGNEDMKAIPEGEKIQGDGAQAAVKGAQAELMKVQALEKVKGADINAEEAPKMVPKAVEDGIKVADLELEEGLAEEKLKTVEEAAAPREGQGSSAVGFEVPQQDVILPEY

[2] = target: T2, panel of 255 wild-type kinases (Homo sapiens, UniProt P21709); conditions: read-out: %-inhibition at 1 µmol/L, EPHA1
T2 sequence (P21709 26-976): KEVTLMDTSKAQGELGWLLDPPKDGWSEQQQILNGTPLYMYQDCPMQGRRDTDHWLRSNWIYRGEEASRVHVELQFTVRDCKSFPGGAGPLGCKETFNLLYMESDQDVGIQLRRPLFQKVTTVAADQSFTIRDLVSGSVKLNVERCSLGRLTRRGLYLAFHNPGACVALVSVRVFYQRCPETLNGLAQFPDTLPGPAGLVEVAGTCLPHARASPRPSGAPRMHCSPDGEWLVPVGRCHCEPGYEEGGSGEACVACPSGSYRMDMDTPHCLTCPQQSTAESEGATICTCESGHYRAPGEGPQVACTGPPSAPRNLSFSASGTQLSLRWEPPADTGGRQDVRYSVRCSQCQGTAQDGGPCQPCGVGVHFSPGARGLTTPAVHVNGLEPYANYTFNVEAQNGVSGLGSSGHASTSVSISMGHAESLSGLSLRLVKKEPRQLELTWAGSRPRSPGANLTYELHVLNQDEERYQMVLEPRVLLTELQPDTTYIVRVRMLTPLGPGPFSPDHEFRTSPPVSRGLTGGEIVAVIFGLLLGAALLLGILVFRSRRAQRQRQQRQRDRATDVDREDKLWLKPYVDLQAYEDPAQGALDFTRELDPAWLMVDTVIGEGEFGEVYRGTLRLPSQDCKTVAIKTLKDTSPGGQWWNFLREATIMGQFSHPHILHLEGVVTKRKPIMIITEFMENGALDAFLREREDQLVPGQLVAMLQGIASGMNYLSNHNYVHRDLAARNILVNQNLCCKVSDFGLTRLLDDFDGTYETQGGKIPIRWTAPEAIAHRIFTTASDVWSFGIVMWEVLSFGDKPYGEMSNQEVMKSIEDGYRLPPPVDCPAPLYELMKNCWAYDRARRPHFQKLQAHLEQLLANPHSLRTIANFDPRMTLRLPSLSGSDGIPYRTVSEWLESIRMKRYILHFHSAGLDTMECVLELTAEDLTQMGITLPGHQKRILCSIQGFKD

[3] = target: panel of 255 wild-type kinases (Homo sapiens, UniProt P35916); conditions: read-out: %-inhibition at 1 µmol/L, FLT4
[4] = target: panel of 255 wild-type kinases (Homo sapiens, UniProt Q14289); conditions: read-out: %-inhibition at 1 µmol/L, PYK2
[5] = target: T3, panel of 255 wild-type kinases (Homo sapiens, UniProt P51817); conditions: read-out: %-inhibition at 1 µmol/L, PRKX
T3 sequence (P51817 1-358): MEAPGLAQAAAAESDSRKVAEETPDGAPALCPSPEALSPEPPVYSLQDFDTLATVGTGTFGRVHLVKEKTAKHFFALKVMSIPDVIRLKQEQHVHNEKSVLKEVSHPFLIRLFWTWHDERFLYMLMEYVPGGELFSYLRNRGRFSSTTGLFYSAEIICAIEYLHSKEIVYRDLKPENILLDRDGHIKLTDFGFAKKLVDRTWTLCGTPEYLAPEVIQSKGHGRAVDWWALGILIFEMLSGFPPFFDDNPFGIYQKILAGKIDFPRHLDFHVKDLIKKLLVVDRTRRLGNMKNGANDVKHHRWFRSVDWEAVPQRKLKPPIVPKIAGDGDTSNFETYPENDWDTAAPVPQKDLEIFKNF

[6] = target: panel of 255 wild-type kinases (Homo sapiens, UniProt Q00534); conditions: read-out: %-inhibition CDK6/CycD3
[7] = CaMK4 kinase assay, 1 µmol/L single concentration
[8] = kinase EPHA1, 1 µmol/L single concentration
[9] = kinase FLT4, 1 µmol/L single concentration
[10] = kinase PYK2, 1 µmol/L single concentration
[11] = kinase PRKX, 1 µmol/L single concentration
[12] = CDK6/CycD3 kinase assay, 1 µmol/L single concentration

Cc1nc(NC(=O)N2CCC[C@H]2C(N)=O)sc1-c1ccnc(C(C)(C)C(F)(F)F)c1 [alpelisib]
inhibition at 1 µM [1, 7]: -7%
inhibition at 1 µM [2, 8]: -3.59%
inhibition at 1 µM [3, 9]: 5%
inhibition at 1 µM [4, 10]: -4%
inhibition at 1 µM [5, 11]: -4.49%
inhibition at 1 µM [6, 12]: 2%

Cn1cc(-c2cc3c(N4CCN(c5ncc([C@@](C)(N)c6ccc(F)cc6)cn5)CC4)ncnn3c2)cn1 [avapritinib]
inhibition at 1 µM [1, 7]: -0.588%
inhibition at 1 µM [2, 8]: 51%
inhibition at 1 µM [3, 9]: 88%
inhibition at 1 µM [4, 10]: 1%
inhibition at 1 µM [5, 11]: 37%
inhibition at 1 µM [6, 12]: -0.371%

Cn1cnc2c(F)c(Nc3ccc(Br)cc3F)c(C(=O)NOCCO)cc21 [binimetinib]
inhibition at 1 µM [1, 7]: 2.67%
inhibition at 1 µM [2, 8]: 4%
inhibition at 1 µM [3, 9]: 3.37%
inhibition at 1 µM [4, 10]: 2.41%
inhibition at 1 µM [5, 11]: 2.57%
inhibition at 1 µM [6, 12]: -0.0739%

CNC(=O)c1ccc(-c2cnc3ncc(Cc4ccc5ncccc5c4)n3n2)cc1F [capmatinib]
inhibition at 1 µM [1]: -2.8%
inhibition at 1 µM [2]: -3.32%
inhibition at 1 µM [3]: 10%
inhibition at 1 µM [4]: -2.25%
inhibition at 1 µM [5]: -5.65%
inhibition at 1 µM [6]: -1.65%

COc1cc2ncnc(Nc3ccc(F)c(Cl)c3)c2cc1NC(=O)/C=C/CN1CCCCC1 [dacomitinib]
inhibition at 1 µM [1, 7]: 2.44%
inhibition at 1 µM [2, 8]: 79%
inhibition at 1 µM [3, 9]: 34%
inhibition at 1 µM [4, 10]: 1.4%
inhibition at 1 µM [5, 11]: 0.677%
inhibition at 1 µM [6, 12]: -6%

C[C@H](Nc1ncnc2nc[nH]c12)c1cc2cccc(Cl)c2c(=O)n1-c1ccccc1 [duvelisib]
inhibition at 1 µM [1, 7]: -3%
inhibition at 1 µM [2, 8]: -7%
inhibition at 1 µM [3, 9]: 0.523%
inhibition at 1 µM [4, 10]: -3.37%
inhibition at 1 µM [5, 11]: 0.385%
inhibition at 1 µM [6, 12]: 1.75%

COC(=O)N[C@@H](C)CNc1nccc(-c2cn(C(C)C)nc2-c2cc(Cl)cc(NS(C)(=O)=O)c2F)n1 [encorafenib]
inhibition at 1 µM [1, 7]: 4.35%
inhibition at 1 µM [2, 8]: 5.42%
inhibition at 1 µM [3, 9]: 17%
inhibition at 1 µM [4, 10]: 4%
inhibition at 1 µM [5, 11]: 1.82%
inhibition at 1 µM [6, 12]: 6%

CN1CCN(c2ccc(C(=O)Nc3n[nH]c4ccc(Cc5cc(F)cc(F)c5)cc34)c(NC3CCOCC3)c2)CC1 [entrectinib]
inhibition at 1 µM [1, 7]: 1.07%
inhibition at 1 µM [2, 8]: 88%
inhibition at 1 µM [4, 10]: 96%
inhibition at 1 µM [5, 11]: 2.19%
inhibition at 1 µM [6, 12]: 1.6%

CCc1nc(C(N)=O)c(Nc2ccc(N3CCC(N4CCN(C)CC4)CC3)c(OC)c2)nc1NC1CCOCC1 [gilteritinib]
inhibition at 1 µM [1, 7]: 18%
inhibition at 1 µM [2, 8]: 99%
inhibition at 1 µM [3, 9]: 99%
inhibition at 1 µM [4, 10]: 93%
inhibition at 1 µM [5, 11]: 4%
inhibition at 1 µM [6, 12]: 4%

CCN1CCN(c2ccc(Nc3cc(N(C)C(=O)Nc4c(Cl)c(OC)cc(OC)c4Cl)ncn3)cc2)CC1 [infigratinib]
inhibition at 1 µM [1, 7]: 2.47%
inhibition at 1 µM [2, 8]: -2%
inhibition at 1 µM [3, 9]: 92%
inhibition at 1 µM [4, 10]: 13%
inhibition at 1 µM [5, 11]: -3.53%
inhibition at 1 µM [6, 12]: 17%

O=C(Nc1cnn2ccc(N3CCC[C@@H]3c3cc(F)ccc3F)nc12)N1CC[C@H](O)C1 [larotrectinib]
inhibition at 1 µM [1, 7]: 0.861%
inhibition at 1 µM [2, 8]: -2.54%
inhibition at 1 µM [3, 9]: -1%
inhibition at 1 µM [4, 10]: 5.34%
inhibition at 1 µM [5, 11]: 0.637%
inhibition at 1 µM [6, 12]: -0.0563%

C[C@H]1Oc2cc(cnc2N)-c2c(nn(C)c2C#N)CN(C)C(=O)c2ccc(F)cc21 [lorlatinib]
inhibition at 1 µM [1, 7]: 1.56%
inhibition at 1 µM [2, 8]: 73%
inhibition at 1 µM [3, 9]: 5%
inhibition at 1 µM [5, 11]: 3.38%
inhibition at 1 µM [6, 12]: 2.65%

CCN1C(=O)N(c2c(F)c(OC)cc(OC)c2F)Cc2cnc3[nH]c(CN4CCOCC4)cc3c21 [pemigatinib]
inhibition at 1 µM [1, 7]: 1.2%
inhibition at 1 µM [2, 8]: -4%
inhibition at 1 µM [3, 9]: 99%
inhibition at 1 µM [4, 10]: 8%
inhibition at 1 µM [5, 11]: -1.75%
inhibition at 1 µM [6, 12]: 48%

FC(F)(F)c1ccc(CNc2ccc(Cc3c[nH]c4ncc(Cl)cc34)cn2)cn1 [pexidartinib]
inhibition at 1 µM [1, 7]: 4%
inhibition at 1 µM [2, 8]: 7%
inhibition at 1 µM [3, 9]: 66%
inhibition at 1 µM [4, 10]: 3%
inhibition at 1 µM [5, 11]: 15%
inhibition at 1 µM [6, 12]: -6.52%

CO[C@]1(C(=O)N[C@@H](C)c2ccc(-n3cc(F)cn3)nc2)CC[C@H](c2nc(C)cc(Nc3cc(C)[nH]n3)n2)CC1 [pralsetinib]
inhibition at 1 µM [1, 7]: 0.271%
inhibition at 1 µM [2, 8]: 66%
inhibition at 1 µM [3, 9]: 99%
inhibition at 1 µM [4, 10]: 64%
inhibition at 1 µM [5, 11]: -0.557%
inhibition at 1 µM [6, 12]: -1.2%

CCn1c(=O)c(-c2cc(NC(=O)Nc3ccccc3)c(F)cc2Br)cc2cnc(NC)cc21 [ripretinib]
inhibition at 1 µM [1, 7]: 1.71%
inhibition at 1 µM [2, 8]: 78%
inhibition at 1 µM [3, 9]: 93%
inhibition at 1 µM [4, 10]: 19%
inhibition at 1 µM [5, 11]: 0.705%
inhibition at 1 µM [6, 12]: -7%

COc1ccc(CN2C3CC2CN(c2ccc(-c4cc(OCC(C)(C)O)cn5ncc(C#N)c45)cn2)C3)cn1 [selpercatinib]
inhibition at 1 µM [1, 7]: -2.54%
inhibition at 1 µM [2, 8]: 79%
inhibition at 1 µM [3, 9]: 101%
inhibition at 1 µM [4, 10]: 12%
inhibition at 1 µM [5, 11]: 55%
inhibition at 1 µM [6, 12]: 0.675%

Cn1cnc2c(F)c(Nc3ccc(Br)cc3Cl)c(C(=O)NOCCO)cc21 [selumetinib]
inhibition at 1 µM [1, 7]: -2%
inhibition at 1 µM [2, 8]: -2.25%
inhibition at 1 µM [3, 9]: 8%
inhibition at 1 µM [4, 10]: -0.622%
inhibition at 1 µM [5, 11]: -4.53%
inhibition at 1 µM [6, 12]: -3.49%

Cc1cc(Nc2ncnc3ccc(NC4=NC(C)(C)CO4)cc23)ccc1Oc1ccn2ncnc2c1 [tucatinib]
inhibition at 1 µM [1, 7]: 0.435%
inhibition at 1 µM [2, 8]: 21%
inhibition at 1 µM [3, 9]: 13%
inhibition at 1 µM [4, 10]: 1.48%
inhibition at 1 µM [5, 11]: -1.54%
inhibition at 1 µM [6, 12]: -2.12%

C=CC(=O)N1CCC([C@@H]2CCNc3c(C(N)=O)c(-c4ccc(Oc5ccccc5)cc4)nn32)CC1 [zanubrutinib]
inhibition at 1 µM [1, 7]: 0.733%
inhibition at 1 µM [2, 8]: -0.68%
inhibition at 1 µM [3, 9]: 6.34%
inhibition at 1 µM [4, 10]: 5.37%
inhibition at 1 µM [5, 11]: -1%
inhibition at 1 µM [6, 12]: 3.49%
